Experimental data from article PMC4385927 (Cell Death & Disease, 2015).
Where two headings read alike, the source gives them in different places.

Key:
[1] = test system: AR42j rat pancreatic acinar cells; format: cell-based
[2] = test system: global protein synthesis rates; settings: mouse; cited from earlier work
[3] = cited from earlier work
[4] = test system: CHO cells expressing a luciferase reporter construct under control of the CHOP promoter; assay: CHOP::luciferase assay; format: cell-based; settings: 5 μg/ml tunicamycin 6 h; ISRIB 1 μM, GSK2606414 20 μM; n=9
Procedure: AR42j cells were cultured in DMEM supplemented with 10% Fetal calf serum (FetalClone II, Thermo Scientific, Loughborough, UK), 2 mM l-glutamine, 1 × Penicillin/Streptomycin and 1 × non-essential amino-acid solution and were maintained at 37 °C with 5% CO2. CHO-KI CHOP::luciferase cells were cultured in DMEM/F12(Ham) (Gibco, Paisley, UK) supplemented with 10% Fetal calf serum, 2 mM L-glutamine and 1 × Penicillin/Streptomycin, and were maintained at 37 °C with 5% CO2.
CHO::KI cells stably transfected with a CHOP::luciferase reporter[27] were plated at a density of 1 × 10^5 per well in a six-well plate and left to grow overnight. Cells were treated for 6 h with 5 μg/ml tunicamycin or vehicle only (100% DMSO) and then extracted using the Steady-Glo luciferase assay system (Promega) before being quantified using the Glomax 96 microplate luminometer (Promega). ISRIB and GSK2606414 were incubated with 5 μg/ml tunicamycin for 6 h at 1 or 20 μM, respectively, before assaying as above.

[5] = mouse, in vivo
ATF4 = test system: ATF4; set-up: species or system mice; settings: mouse, in vivo, ip, 0.25 mg/kg
[6] = test system: global protein synthesis rates; set-up: species or system mice; settings: mouse, in vivo, ip, 0.25 mg/kg
total PrP and PrP^Sc = test system: total PrP and PrP^Sc; set-up: species or system mice; settings: mouse, in vivo
[7] = Plasma and brain concentration of trans-ISRIB by LC-MS/MS after single intraperitoneal injection; format: in vivo; settings: wild-type mice; for Brain mean ±S.D. / Plasma mean ±S.D.: n=3
Procedure: We synthesized ISRIB as described,[22] and confirmed penetration of the blood–brain barrier and measured mean brain:plasma ratios at various doses in wild-type mice. Intra-peritoneal administration of 0.25 mg/kg of trans-ISRIB (henceforth termed simply ISRIB), as used by Sidrauski et al.[22] to enhance memory in mice, gave a favorable pharmacokinetic profile (Table 1), so this dose was used for treatment.
Blood and brain tissue were collected 8 or 24 h after dosing from mice treated with one doses of 0.25, 2.5 or 5 mg/kg trans-ISRIB, or vehicle. Blood plasma (up 0.2 ml, exact volume measured) was diluted with water to 0.2 ml and extracted with 0.4 ml of chloroform/methanol 2 : 1. After vortex mixing (10 min) and centrifugation (10 000 g, 10 min), the lower layer was dried with vacuum centrifugation and reconstituted in 50 μl of methanol. Brain tissue (one complete half, about 0.25 g weighed exactly) was homogenized in 0.5 ml of chloroform/methanol 2 : 1 and further processed exactly as the plasma samples. ISRIB quantitative analysis (using external standards) was performed by LC-MS/MS using a 4000 QTRAP mass spectrometer (Applied Biosystems, Foster City, CA, USA) equipped with a turbo ion source and LC series 10 AD VP (Shimadzu). The mobile phase was a water/acetonitrile gradient modified with 0.1% formic acid using a Agilent Poroshell 120 SB-C18 2.1 × 50 mm^2 (2.7 μm), which was maintained at 40 °C. LC-MS/MS multiple reaction monitoring used a precursor ion of mass/charge ratio (m/z) 452 and a product ion of m/z 265 in positive electrospray ionization mode for trans-ISRIB. Data analysis was performed with Analyst 1.4.1 in the quantitative mode.

eIF2α-P = test system: eIF2α-P; set-up: species or system mice; settings: mouse, in vivo, ip, 0.25 mg/kg
[8] = test system: Rocky Mountain Laboratory (RML) prions; format: in vivo, mice
Solubility (statement) = format: physicochemical
[9] = single i.p. dose 0.25 mg/kg, 8 h
[10] = single i.p. dose 0.25 mg/kg, 24 h
[11] = single i.p. dose 2.5 mg/kg, 8 h
[12] = single i.p. dose 2.5 mg/kg, 24 h
[13] = prion-infected mice, ISRIB 0.25 mg/kg i.p. daily from 7 w.p.i., vehicle 9/9

Cn1cc(-c2ccc3c(c2)CCN3C(=O)Cc2cccc(C(F)(F)F)c2)c2c(N)ncnc21 [GSK2606414, 7-methyl-5-(1-{[3-(trifluoromethyl)phenyl]acetyl}-2,3-dihydro-1H-indol-5-yl)-7H-p yrrolo[2,3-d]pyrimidin-4-amine]
protein synthesis (translation) rates restored in vitro, % of control levels ([1]; thapsigargin-treated AR42j cells, Figures 6a and b): 90%
recovery of protein synthesis rates in vivo [2]: ~ 100%
toxicity of GSK2606414 treatment in prion-diseased mice [3]: weight loss and mild hyperglycemia
tunicamycin-induced CHOP induction (relative luminescence) [4]: completely inhibited
reduction in pancreatic weight ([5]; Tg37+/-, po, 50 mg/kg): ~ 50%
blood glucose levels [5]: mildly but significantly elevated
pancreas histology (H&E sections) [5]: extensive destruction of exocrine acinar pancreatic tissue

O=C(COc1ccc(Cl)cc1)N[C@H]1CC[C@H](NC(=O)COc2ccc(Cl)cc2)CC1 [ISRIB]
levels of ATF4 (hippocampus) (ATF4): reduced levels of ATF4 markedly
protein synthesis (translation) rates restored in vitro, % of control levels [1]: ~ 50%
global protein synthesis rates, % of levels seen in uninfected controls [6]: ~ 70%
levels of total PrP and PrP^Sc (total PrP and PrP^Sc): does not affect
Mean ratio brain: plasma [7, 9]: 0.54
Brain mean ±S.D. [7, 9]: 186.9 ± 46.8 ng/g
Plasma mean ±S.D. [7, 9]: 345.3 ± 44.7 ng/mL
Mean ratio brain: plasma [7, 10]: 1.62
Brain mean ±S.D. [7, 10]: 16.0 ± 1.6 ng/g
Plasma mean ±S.D. [7, 10]: 9.9 ± 1.0 ng/mL
Mean ratio brain: plasma [7, 11]: 0.35
Brain mean ±S.D. [7, 11]: 254.6 ± 70.3 ng/g
Plasma mean ±S.D. [7, 11]: 721.6 ± 60.1 ng/mL
Mean ratio brain: plasma [7, 12]: 0.9
Brain mean ±S.D. [7, 12]: 39.7 ± 12.6 ng/g
Plasma mean ±S.D. [7, 12]: 44.1 ± 11.6 ng/mL
Mean ratio brain: plasma ([7]; single i.p. dose 5 mg/kg, 8 h): 0.43
Brain mean ±S.D. ([7]; single i.p. dose 5 mg/kg, 8 h): 160.3 ± 17.6 ng/g
Plasma mean ±S.D. ([7]; single i.p. dose 5 mg/kg, 8 h): 369.7 ± 114.4 ng/mL
Mean ratio brain: plasma ([7]; single i.p. dose 5 mg/kg, 24 h): 0.91
Brain mean ±S.D. ([7]; single i.p. dose 5 mg/kg, 24 h): 64.6 ± 9.2 ng/g
Plasma mean ±S.D. ([7]; single i.p. dose 5 mg/kg, 24 h): 70.9 ± 30.6 ng/mL
eIF2α-P levels (hippocampus) (eIF2α-P): unchanged
tunicamycin-induced CHOP induction (relative luminescence) [4]: only partially reduced
animals that developed confirmatory signs of prion disease by 12 w.p.i. ([8]; clinical observation, vehicle 9/9): 0/12
survival in prion-infected mice ([8]; n=12, vehicle 84±3 days (n=9), killed because of loss of 20% of body weight): 96±4 days post infection
Confirmatory signs: Dragging of limbs (front/hind) (mice affected/total) ([8]; prion-infected mice, ISRIB 0.25 mg/kg i.p. daily from 7 w.p.i., vehicle 2/9): 0/12
Confirmatory signs: Sustained hunched posture (mice affected/total) ([8]; prion-infected mice, ISRIB 0.25 mg/kg i.p. daily from 7 w.p.i., vehicle 3/9): 0/12
Early indicator signs: Unsustained hunched posture (mice affected/total) ([8]; prion-infected mice, ISRIB 0.25 mg/kg i.p. daily from 7 w.p.i., vehicle 4/9): 0/12
Confirmatory signs: Impairment of righting reflex (mice affected/total) ([8]; prion-infected mice, ISRIB 0.25 mg/kg i.p. daily from 7 w.p.i., vehicle 5/9): 0/12
Early indicator signs: Hind limb clasping (mice affected/total) ([8]; prion-infected mice, ISRIB 0.25 mg/kg i.p. daily from 7 w.p.i., vehicle 8/9): 7/12
Early indicator signs: Mild loss of coordination (mice affected/total) [8, 13]: 7/12
Early indicator signs: Rigid tail (mice affected/total) [8, 13]: 7/12
Scrapie incubation: Number of animals succumbing to prion disease [8, 13]: 0/12
neuronal loss in the hippocampus (neuropathological examination, H&E) ([8]; prion-infected mice, ISRIB vs vehicle): prevented neuronal loss
solubility (Solubility (statement)): high insolubility
blood glucose levels [5]: unaffected
loss of body weight at which animals had to be killed [5]: 20%
pancreas histology (H&E sections) [5]: histologically normal
pancreatic weights [5]: normal
